{"source": "patent US10723746B2", "about": "“Oxazolidinone-quinolone hybrid antibacterials for the parenteral treatment or prophylaxis of bacterial diseases” (MORPHOCHEM AKTIENGESELLSCHAFT FÜR KOMBINATORISCHE CHEMIE, priority 2013, dated 2020)", "key": {"[1]": {"test_system": "anaerobes, in particular Gram-positive anaerobes", "settings": "cited from earlier work"}, "[2]": {"settings": "in vivo; cited from earlier work"}, "[3]": {"assay": "Solubility in aqueous media", "assay_type": "physicochemical"}, "[4]": {"assay": "First-in-Man study: iv. bolus or 20 min infusion of Compound 1", "assay_type": "in vivo, humans", "settings": "for AUC / Cmax: male, human, plasma, mean", "protocol": "Volunteers were administered doses of up to 3.0 mg/kg body weight (BW) of Compound 1 given as iv. bolus injection of 2 min duration. Additionally, doses of 1.5 and 3.0 mg/kg BW of Compound 1 were administered as a short-term infusion of 20 min duration, resulting in infusion rates of 4.5 and 9.0 mg/(kg BW×h), respectively."}, "Clostridium difficile": {"test_system": "Clostridium difficile", "assay": "Antimicrobial susceptibility of 114 C. difficile strains by agar dilution method", "assay_type": "cell-based", "settings": "for MIC50: Clostridioides difficile, read-out: MIC50", "protocol": "One hundred fourteen Clostridium difficile strains were collected from 67 patients and analyzed for the presence of C. difficile toxin B by the cell cytotoxicity neutralization assay, genes for toxin A, toxin B, binary toxin and TcdC deletion by PCR. All strains were also PCR-ribotyped. The MICs of the isolates were determined against Compound 2 by the agar dilution method. All isolates were positive for toxin B. One hundred thirteen isolates were positive for toxin A and B genes. In addition, 13 isolates were positive for the binary toxin genes. Thirty-two different ribotypes were identified. No strain of ribotype 027 was found.\nOne hundred fourteen C. difficile strains were selected from patients (26 males and 41 females) with primary and/or recurrent CDI. The mean age of the patients was 74 years (age range 19-97 years). The strains (67 primary and 47 recurrent isolates) were identified by characteristic colony morphology, typical smell and Gram staining. Gas chromatography was used to detect volatile, short chain fatty acids production by the C. difficile strains for the final identification.\nThe antimicrobial susceptibility of the C. difficile strains was determined according to CLSI guidelines by the agar dilution method using Bacteroides fragilis ATCC 25285 and C. difficile ATCC 700057 as reference strains [CLSI. Methods for Antimicrobial Susceptibility Testing of Anaerobic Bacteria; Approved Standard-Eighth Edition. 2012].\nMIC was defined as the lowest concentration of the drug that inhibited growth completely. MIC50/90 corresponds to the concentrations that inhibit the growth of 50% and 90%, of the strains tested, respectively.\nPCR ribotype profiles from clinical isolates were compared to those profiles which define the database by maximum matching with Pearson correlation. IBM SPSS Statistics 22 (Armonk, N.Y., USA) software was used to calculate the percentiles 50 and 90 of the MIC results. Descriptive statistics were used to summarize the results."}, "[5]": {"test_system": "Staphylococcus aureus Visa Mu 50", "assay": "MIC testing according to CLSI guidelines", "assay_type": "cell-based", "excerpt": "(§1) MIC testing was done according to CLSI (formerly NCCLS) guidelines: Performance Standards for Antimicrobial Susceptibility Testing 11th Informational Supplement, Vol. 21 No 1, M100-S11, January 2001. NCCLS. Revised edition: 17th Informational Supplement, Vol. 27 No 1, […], January 2007."}, "[6]": {"test_system": "Staphylococcus aureus ATCC 33593", "assay": "MIC testing according to CLSI guidelines", "assay_type": "cell-based", "settings": "ATCC33593", "excerpt": "as §1"}, "[7]": {"test_system": "Staphylococcus aureus NRS 120", "assay": "MIC testing according to CLSI guidelines", "assay_type": "cell-based", "settings": "NRS120", "excerpt": "as §1"}, "[8]": {"test_system": "Staphylococcus aureus ATCC 29213", "assay": "MIC testing according to CLSI guidelines", "assay_type": "cell-based", "settings": "ATCC29213", "excerpt": "as §1"}, "[9]": {"test_system": "Enterococcus faecalis ATCC 29212", "assay": "MIC testing according to CLSI guidelines", "assay_type": "cell-based", "settings": "ATCC29212", "excerpt": "as §1"}, "[10]": {"test_system": "Streptococcus pneumoniae ATCC 33400", "assay": "MIC testing according to CLSI guidelines", "assay_type": "cell-based", "settings": "ATCC33400", "excerpt": "as §1"}, "[11]": {"test_system": "Enterococcus faecalis ATCC 51299", "assay": "MIC testing according to CLSI guidelines", "assay_type": "cell-based", "settings": "ATCC51299", "excerpt": "as §1"}, "[12]": {"test_system": "Staphylococcus aureus ATCC 43300", "assay": "MIC testing according to CLSI guidelines", "assay_type": "cell-based", "settings": "ATCC43300", "excerpt": "as §1"}, "Gram-negative species": {"test_system": "Gram-negative species", "assay": "Fecal microflora after i.v. infusions in healthy volunteers", "assay_type": "in vivo, human", "settings": "Compound 1 i.v. 6 mg/kg over 12 hours for 5 days", "protocol": "(§2) Healthy human volunteers received i.v. infusions of Compound 1 at a dose of 6 mg/kg body weight over 12 hours for 5 consecutive days. […] Viable counts of lactobacilli were reduced from predose to Day 5 by 4.0 log 10 CFU/g. […] Likewise, enterococci were reduced from predose to Day 5 by 3.8 log 10 CFU/g on average."}, "Clostridium spp.": {"test_system": "Clostridium spp.", "assay": "Fecal microflora viable counts after i.v. infusions in healthy volunteers", "assay_type": "in vivo, human", "protocol": "as §2"}, "bifidobacteria": {"test_system": "bifidobacteria", "assay": "Fecal microflora viable counts after i.v. infusions in healthy volunteers", "assay_type": "in vivo, human", "settings": "Compound 1 i.v. 6 mg/kg over 12 hours for 5 days", "protocol": "as §2"}, "enterococci": {"test_system": "enterococci", "assay": "Fecal microflora viable counts after i.v. infusions in healthy volunteers", "assay_type": "in vivo, human", "settings": "Compound 1 i.v. 6 mg/kg over 12 hours for 5 days", "protocol": "as §2"}, "lactobacilli": {"test_system": "lactobacilli", "assay": "Fecal microflora viable counts after i.v. infusions in healthy volunteers", "assay_type": "in vivo, human", "settings": "Compound 1 i.v. 6 mg/kg over 12 hours for 5 days", "protocol": "as §2"}, "[13]": {"test_system": "Clostridium difficile infections (CDI)", "settings": "oral administration; cited from earlier work"}, "C difficile [14]": {"test_system": "C difficile", "settings": "cited from earlier work"}, "C difficile [15]": {"test_system": "C difficile", "settings": "cited from earlier work", "remark": "listed apart in the source"}, "[16]": {"settings": "cited from earlier work"}, "[17]": {"settings": "114 C. difficile strains, agar dilution"}, "[18]": {"settings": "intravenous, Drug after 3.0 mg/kg BW Compound 1, 20 min infusion, 9.0 mg/(kg BW·h)"}, "[19]": {"settings": "Drug after 3.0 mg/kg BW Compound 1 iv. bolus"}}, "note": "Counter-ions that a name gives are not always drawn. Like-named read-outs stand apart in the source and are kept apart here.", "data": [{"compound": "O=C(O)c1cn(C2CC2)c2cc(N3CCNCC3)c(F)cc2c1=O", "note": "[Ciprofloxacin]", "values": [{"measurement": "Activity in vitro against anaerobes", "setting": "[1]", "value": "neither active in vitro"}, {"measurement": "Fecal concentrations", "setting": "[2]", "value": "high"}]}, {"compound": "CC(=O)NC[C@H]1CN(c2ccc(OCC3(OP(=O)(O)O)CCN(c4cc5c(cc4F)c(=O)c(C(=O)O)cn5C4CC4)CC3)c(F)c2)C(=O)O1", "note": "[Compound 1, sodium salt of 7-(4-{4-[(5S)-5-(Acetylamino-methyl)-2-oxo-oxazolidin-3-yl]-2-fluoro-phenoxymethyl}-4-phosphonooxy-piperidin-1-yl)-1-cyclopropyl-6-fluoro-4-oxo-1,4-dihydro-quinoline-3-carboxylic acid]", "values": [{"measurement": "Solubility in aqueous media", "setting": "[3]", "value": "very good solubility"}, {"measurement": "AUC of the Prodrug, 20 min infusion compared to bolus administration", "setting": "[4]; 3.0 mg/kg BW", "value": "lower AUC"}, {"measurement": "Conversion of the Prodrug to the Drug", "setting": "[4]; humans, all doses applied", "value": "very rapid conversion"}]}, {"compound": "CC(=O)NC[C@H]1CN(c2ccc(OCC3(O)CCN(c4cc5c(cc4F)c(=O)c(C(=O)O)cn5C4CC4)CC3)c(F)c2)C(=O)O1", "note": "[Compound 2, 7-(4-{4-[(5S)-5-(Acetylamino-methyl)-2-oxo-oxazolidin-3-yl]-2-fluoro-phenoxymethyl}-4-hydroxy-piperidin-1-yl)-1-cyclopropyl-6-fluoro-4-oxo-1,4-dihydro-quinoline-3-carboxylic acid]", "values": [{"measurement": "MIC range", "setting": "Clostridium difficile; 114 C. difficile isolates, agar dilution", "value": "0.008-0.5 mg/1"}, {"measurement": "MIC90", "setting": "Clostridium difficile; [17]", "value": 0.064, "unit": "mg/1"}, {"measurement": "MIC range", "setting": "Clostridium difficile; [17]", "value": "0.008 to 0.5", "unit": "mg/L"}, {"measurement": "MIC50", "setting": "Clostridium difficile", "value": 0.064, "unit": "µg/mL"}, {"measurement": "MIC50", "setting": "Clostridium difficile; [17]", "value": 0.032, "unit": "µg/mL"}, {"measurement": "Susceptibility of the C. difficile isolates", "setting": "Clostridium difficile; all 114 isolates", "value": "sensitive"}, {"measurement": "MIC", "setting": "[5]", "value": 0.5, "unit": "µg/mL"}, {"measurement": "MIC", "setting": "[6]", "value": 0.25, "unit": "µg/mL"}, {"measurement": "MIC", "setting": "[7]", "value": 2, "unit": "µg/mL"}, {"measurement": "MIC", "setting": "[8]", "value": 0.5, "unit": "µg/mL"}, {"measurement": "MIC", "setting": "[9]", "value": 0.25, "unit": "µg/mL"}, {"measurement": "MIC", "setting": "[10]", "value": 0.03, "unit": "µg/mL"}, {"measurement": "MIC", "setting": "[11]", "value": 0.25, "unit": "µg/mL"}, {"measurement": "MIC", "setting": "[12]", "value": 0.5, "unit": "µg/mL"}, {"measurement": "Effect of exposure of the fecal flora on Gram-negative species", "setting": "Gram-negative species", "value": "did not affect"}, {"measurement": "AUC", "setting": "[4]; [18]", "value": 3230, "unit": "ng·h/mL"}, {"measurement": "Cmax", "setting": "[4]; [18]", "value": 3180, "unit": "ng/mL"}, {"measurement": "AUC", "setting": "[4]; [19]", "value": 2170, "unit": "ng·h/mL"}, {"measurement": "Cmax", "setting": "[4]; [19]", "value": 2450, "unit": "ng/mL"}, {"measurement": "Reduction of viable counts of Clostridium spp. from predose to Day 5", "setting": "Clostridium spp.; Compound 1 i.v. 6 mg/kg over 12 hours for 5 days", "value": 3.0, "unit": "log 10 CFU/g"}, {"measurement": "Viable counts of Clostridium spp. until Day 3 postdose", "setting": "Clostridium spp.; all except one of the volunteers", "value": "reduced below the limit of detection"}, {"measurement": "Reduction of viable counts of bifidobacteria from predose to Day 5", "setting": "bifidobacteria", "value": 7.9, "unit": "log 10 CFU/g"}, {"measurement": "Reduction of enterococci from predose to Day 5, on average", "setting": "enterococci", "value": 3.8, "unit": "log 10 CFU/g"}, {"measurement": "Reduction of viable counts of lactobacilli from predose to Day 5", "setting": "lactobacilli", "value": 4.0, "unit": "log 10 CFU/g"}]}, {"compound": "CCc1c(Cl)c(O)c(Cl)c(O)c1C(=O)O[C@H]1[C@H](O)[C@H](OC)[C@H](OC/C2=C\\C=C\\C[C@H](O)/C(C)=C/[C@H](CC)[C@@H](O[C@@H]3OC(C)(C)[C@@H](OC(=O)C(C)C)[C@H](O)[C@@H]3O)/C(C)=C/C(C)=C/C[C@@H]([C@@H](C)O)OC2=O)O[C@@H]1C", "note": "[fidaxomicin]", "values": [{"measurement": "Frequency of recurrence of CDI", "setting": "[13]", "value": "approximately 13%"}]}, {"compound": "CC(=O)NC[C@H]1CN(c2ccc(N3CCOCC3)c(F)c2)C(=O)O1", "note": "[linezolid]", "values": [{"measurement": "Activity in an in vitro human gut model", "setting": "C difficile [14]", "value": "inactive"}, {"measurement": "Activity in vitro against C difficile", "setting": "C difficile [15]", "value": "active"}, {"measurement": "Fecal concentrations", "setting": "[2]", "value": "negligibly low"}, {"measurement": "Fraction of the dose excreted via the feces", "setting": "[2]", "value": "0.2 % of the dose"}]}, {"compound": "Cc1ncc([N+](=O)[O-])n1CCO", "note": "[metronidazole]", "values": [{"measurement": "Toxicity associated with long term treatment", "setting": "[16]", "value": "neurotoxicity"}]}, {"compound": "CN[C@H](CC(C)C)C(=O)N[C@H]1C(=O)N[C@@H](CC(N)=O)C(=O)N[C@H]2C(=O)N[C@H]3C(=O)N[C@H](C(=O)N[C@H](C(=O)O)c4cc(O)cc(O)c4-c4cc3ccc4O)[C@H](O)c3ccc(c(Cl)c3)Oc3cc2cc(c3O[C@@H]2O[C@H](CO)[C@@H](O)[C@H](O)[C@H]2O[C@H]2C[C@](C)(N)[C@H](O)[C@H](C)O2)Oc2ccc(cc2Cl)[C@H]1O", "note": "[vancomycin]", "values": [{"measurement": "Toxicity associated with long term treatment", "setting": "[16]", "value": "nephrotoxicity"}]}]}
